Counter-ions that a name gives are not always drawn. Like-named read-outs stand apart in the source and are kept apart here.
Key:
[1] = Solid state chemical stability of crystalline salts; assay type: physicochemical
[2] = Solid state physical stability (form conversion) of crystalline salts; assay type: physicochemical; settings: No form conversion after 1 week at 40° C./ambient RH, 40° C./75% RH, and 80° C.
[3] = Relative thermodynamic stability of crystal forms; assay type: physicochemical; settings: comparison of besylate crystal forms
From the text: The benzyloxycarbonyl (Cbz) group of 16 was cleaved to give 1 by a noble transition metal, such as Pd/C, […], Pt/C, catalyzed hydrogenation in an alcoholic solvent such as methanol, ethanol, or the like, or by acidic solvolysis with a hydrogen halide such as HCl, HBr, or HI or an equivalent such as combination of a metal or an ammonium halide and an acid trifluoroacetic acid, methanesulfonic acid, or the like in organic solvent such as acetonitrile, toluene, or acetic acid at a temperature from about 0° C. to about 60° C. If this deprotection of Cbz group was carried out under acidic condition, 1 could be obtained from 14a,b or 15a,b in a one-pot manner. Benzyl halide, which was a side product of deprotection of Cbz group, was easily removed from the reaction mixture by back-extraction with heptane. Free base of 1 was difficult to be extracted from the aqueous layer to organic layer because of its amphipathic physical property. […] Crude free base was purified by crystallization as a benzenesulfonate salt from IPA-IPAc-heptane solvent system. The benzenesulfonate salt has two crystal forms Form I or II. […] The benzenesulfonate salt can be recrystallized from acetonitrile and alcohol such as methanol, ethanol, or isopropanol, if necessary.

[4] = Hygroscopicity of crystalline salts of the compound of Formula Ia; assay type: physicochemical

SMILES: C[C@@H](O[C@H]1CC[C@@H]([C@H]2C[C@@](C)(N)C(=O)N2)[C@@H]1c1ccc(F)cc1)c1cc(C(F)(F)F)cc(C(F)(F)F)c1 (as salt: succinate) (hydrate or solvate)
- melting point: 187 °C

SMILES: C[C@@H](O[C@H]1CC[C@@H]([C@H]2C[C@@](C)(N)C(=O)N2)[C@@H]1c1ccc(F)cc1)c1cc(C(F)(F)F)cc(C(F)(F)F)c1 [Besylate Anhydrous Form II]
- Solid State Chemical Stability [1]: Stable
- Solid State Physical Stability [2]: Stable^3
- Thermodynamic stability relative to other crystal form [3]: more thermodynamically stable than Form 1

SMILES: C[C@@H](O[C@H]1CC[C@@H]([C@H]2C[C@@](C)(N)C(=O)N2)[C@@H]1c1ccc(F)cc1)c1cc(C(F)(F)F)cc(C(F)(F)F)c1 [Besylate Anhydrous Form I]
- Hygroscopicity (25° C.) [4]: consistently non-hygroscopic
- Solid State Chemical Stability [1]: Stable
- Solid State Chemical Stability ([1]; listed as anhydrous form I): physically and chemically stable
- Solid State Physical Stability [2]: Stable^3
- Solid State Physical Stability ([2]; listed as anhydrous form I): physically and chemically stable
- Thermodynamic stability relative to other crystal form [3]: more thermodynamically stable than form II

SMILES: C[C@@H](O[C@H]1CC[C@@H]([C@H]2C[C@@](C)(N)C(=O)N2)[C@@H]1c1ccc(F)cc1)c1cc(C(F)(F)F)cc(C(F)(F)F)c1 [Succinate]
- Solid State Physical Stability [2]: Stable

From US20090247770A1, “PROCESS FOR MAKING LACTAM TACHYKININ RECEPTOR ANTAGONISTS” (priority 2006, published 2009)
